Measured values from US6818619B2, “Chimeric natriuretic peptides” (Mayo Foundation for Medical Education and Research, priority 1999, dated 2004).
Values joined by “and” are separate entries in the source; they are usually repeats but may differ in a detail not shown here. Equal entries are not always repeated.

Tested on: normal rats
Experiment: Cardiorenal actions of bolus ANP, CNP, VNP in anesthetized normal rats
Type: in vivo, rat
[1] = normal rats, Recovery (after 30 minute washout)

CC[C@H](C)[C@@H]1NC(=O)[C@H](CCCNC(=N)N)NC(=O)[C@H](CC(=O)O)NC(=O)[C@H](CCSC)NC(=O)[C@H](CCCNC(=N)N)NC(=O)CNC(=O)CNC(=O)[C@H](Cc2ccccc2)NC(=O)[C@@H](NC(=O)[C@H](CO)NC(=O)[C@H](CO)NC(=O)[C@H](CCCNC(=N)N)NC(=O)[C@H](CCCNC(=N)N)NC(=O)[C@H](CC(C)C)NC(=O)[C@@H](N)CO)CSSC[C@@H](C(=O)N[C@@H](CC(N)=O)C(=O)N[C@@H](CO)C(=O)N[C@@H](Cc2ccccc2)C(=O)N[C@@H](CCCNC(=N)N)C(=O)N[C@@H](Cc2ccc(O)cc2)C(=O)O)NC(=O)CNC(=O)[C@H](CC(C)C)NC(=O)CNC(=O)[C@H](CO)NC(=O)[C@H](CCC(N)=O)NC(=O)[C@H](C)NC(=O)CNC1=O [ANP, Atrial natriuretic peptide]
HR heart rate (normal rats, 5 μg/kg bolus): 353 ± 14 beats/minute
MAP mean arterial pressure (normal rats, 5 μg/kg bolus): 97 ± 12 mmHg
RAP right atrial pressure (normal rats, 5 μg/kg bolus): −2.3 ± 0.8 mmHg
UKV urine potassium excretion (normal rats, 5 μg/kg bolus): 10.3 ± 3.5 µmol/min
UNaV urine sodium excretion (normal rats, 5 μg/kg bolus): 13.2 ± 3.5 µmol/min
UV urine volume (normal rats, 5 μg/kg bolus): 79 ± 10 µL/min
UcGMPV urine cGMP volume (normal rats, 5 μg/kg bolus): 605 ± 151 pmol/min
HR heart rate (normal rats, 50 μg/kg bolus): 355 ± 19 beats/minute
MAP mean arterial pressure (normal rats, 50 μg/kg bolus): 69 ± 7*+ mmHg
RAP right atrial pressure (normal rats, 50 μg/kg bolus): −3.8 ± 0.8*+ mmHg
UKV urine potassium excretion (normal rats, 50 μg/kg bolus): 24.4 ± 8.7 µmol/min
UNaV urine sodium excretion (normal rats, 50 μg/kg bolus): 68.2 ± 15.7*+ μmol/minute
UV urine volume (normal rats, 50 μg/kg bolus): 341 ± 41*+ μl/minute
UcGMPV urine cGMP volume (normal rats, 50 μg/kg bolus): 2580 ± 505*+ pmol/minute
HR heart rate [1]: 368 ± 23 beats/minute
MAP mean arterial pressure [1]: 92 ± 11*¶ mmHg
PcGMP plasma cGMP [1]: 3.2 − 63¶ pmol/ml
RAP right atrial pressure [1]: −0.8 ± 0.9¶ mmHg
UKV urine potassium excretion [1]: 2.4 ± 0.1 µmol/min
UNaV urine sodium excretion [1]: 8.9 ± 3.5¶ μmol/minute
UV urine volume [1]: 48 ± 14¶ μl/minute
UcGMPV urine cGMP volume [1]: 105 ± 63¶ pmol/minute

C-type natriuretic peptide (GLSKGCFGLKLDRIGSMSGLGC) [CNP]
HR heart rate (rat, in vivo): 363 ± 19 beats/minute and 365 ± 19 beats/minute and 363 ± 16 beats/minute
MAP mean arterial pressure (rat, in vivo): 100 ± 12 mmHg and 87 ± 9*+ mmHg and 104 ± 11*¶ mmHg

vasonatrin peptide [VNP]
HR heart rate (rat, in vivo): 393 ± 20 beats/minute and 408 ± 25 beats/minute and 390 ± 20 beats/minute
MAP mean arterial pressure (rat, in vivo): 93 ± 15 mmHg and 79 ± 15*+ mmHg and 93 ± 15*¶ mmHg
